The values below come from US20210009542A1 (Calico Life Sciences LLC, priority 2018, published 2021).

Experiment [1] deals with B16F10 mouse melanoma cells. Nature of the experiment: B16F10 IFNγ-induced cellular growth inhibition assay. The settings on record: Mus musculus, B16-F10, 33 μM compound. The class given is cell-based. An outline of the steps: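 Live-cell imaging of confluence every 6 h over 5 days at 37 °C tracked growth of mouse B16F10 melanoma cells seeded overnight at 500/well. Semi-log compound series (final 100–0.001 μM, 0.1% DMSO) ran in both arms, ±IFNγ at 0.5 ng/mL final; inhibition taken relative to DMSO plus IFNγ when IFNγ-free DMSO wells passed 95% confluence.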

For experiment [2], the target named is T1, His tagged full-length PTP1B protein (Homo sapiens, UniProt P18031).
T1 construct: made in house
T1 sequence (P18031 with tags, fused parts or gaps): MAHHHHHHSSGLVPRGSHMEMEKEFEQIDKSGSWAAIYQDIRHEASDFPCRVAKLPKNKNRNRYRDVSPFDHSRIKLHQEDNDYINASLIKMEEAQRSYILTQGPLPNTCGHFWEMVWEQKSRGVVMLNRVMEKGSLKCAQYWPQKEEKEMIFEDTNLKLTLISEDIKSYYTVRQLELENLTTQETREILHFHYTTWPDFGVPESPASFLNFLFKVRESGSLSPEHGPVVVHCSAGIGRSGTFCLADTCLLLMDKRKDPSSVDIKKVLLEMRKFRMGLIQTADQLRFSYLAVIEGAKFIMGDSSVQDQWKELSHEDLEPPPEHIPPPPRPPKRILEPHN
As to the kind of experiment: Mobility shift assay (MSA) for potency of PTP1B inhibitors. The experiment is classed as biochemical. Here is the method:
The enzymatic assay used to determine activity is a mobility shift assay using a LabChip EZ Reader by Caliper Life Sciences. The enzymatic reaction was carried out in assay buffer (50 mM HEPES pH 7.5, 1 mM EGTA, 10 mM EDTA, 0.01% Tween® 20, and 2 mM DTT). […] The enzyme (at 0.5 nM) was incubated with compound for 10 minutes at room temperature. […] The % inhibition was then used to calculate the IC50 values.

Experiment [3] has as its target T2, His tagged PTPN2 (TC45) protein (Homo sapiens, UniProt P17706).
T2 construct: made in house
T2 sequence (P17706 with tags, fused parts or gaps isoform P17706-2): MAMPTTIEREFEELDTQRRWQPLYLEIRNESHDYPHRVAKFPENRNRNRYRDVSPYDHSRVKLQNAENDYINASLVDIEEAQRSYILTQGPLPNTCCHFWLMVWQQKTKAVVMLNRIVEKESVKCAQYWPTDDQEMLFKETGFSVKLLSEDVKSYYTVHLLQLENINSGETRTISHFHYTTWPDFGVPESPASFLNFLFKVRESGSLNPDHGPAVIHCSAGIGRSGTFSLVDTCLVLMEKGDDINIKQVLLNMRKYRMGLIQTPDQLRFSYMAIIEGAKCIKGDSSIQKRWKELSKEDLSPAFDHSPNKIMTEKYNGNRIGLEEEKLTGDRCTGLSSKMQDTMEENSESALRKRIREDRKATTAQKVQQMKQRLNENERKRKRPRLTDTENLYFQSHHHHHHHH
Nature of the experiment: Mobility shift assay (MSA) for potency of PTPN2 inhibitors. The experiment is classed as biochemical. The following applies: read-out: PTPN2 MSA IC50. The gist of the method: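 IC50 values were derived from % inhibition of substrate conversion, measured by microfluidic mobility shift (ex 488/em 530) after quenching. The fluorescent phosphotyrosine insulin-receptor peptide ([…]) reacted for 10 min at room temperature with 0.5 nM His-tagged TC45 PTPN2 that had been preincubated 10 min with compound (12 points, 1:3). Buffer was HEPES pH 7.5 with EGTA, EDTA, Tween 20 and DTT.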

[4] abbreviates: +0.5 ng/mL IFNγ, relative to DMSO control, read-out: % B16F10 growth inhibition (+0.5 ng/mL IFNγ) @ 33 μM.
Where [5] appears, read: no IFNγ, read-out: % B16F10 growth inhibition (no IFNγ) @ 33 μM.

The structures appear in SMILES notation. Read-outs that look alike come from different tables or passages of the source.

Take `O=C1CN(c2c(O)cc3ccc(OCC4CCCO4)cc3c2F)S(=O)(=O)N1` (stereo not drawn) [Compound 254, 5-{1-fluoro-3-hydroxy-7-[(oxolan-2-yl)methoxy]naphthalen-2-yl}-1λ^6,2,5-thiadiazolidine-1,1,3-trione]: the results for the inhibition at 33 µM in experiment [1] (setting [4]) and in experiment [1] (setting [5]) were 60 to 90% and less than 25%, respectively. The results for the IC50 in experiment [2] and in experiment [3] were more than 100 nM and 1 to 10 nM, respectively.

As for `O=C1CN(c2c(O)cc3ccc(OCCC4CCNCC4)cc3c2F)S(=O)(=O)N1` [Compound 108, 5-{1-fluoro-3-hydroxy-7-[2-(piperidin-4-yl)ethoxy]naphthalen-2-yl}-1λ^6,2,5-thiadiazolidine-1,1,3-trione], the inhibition at 33 µM in experiment [1] (setting [4]) was 25 to 59%; in experiment [1] (setting [5]), less than 25%. The IC50 in experiment [2] and in experiment [3] was 1 to 10 nM each time.

`O=C1CN(c2c(O)cc3ccc(C4=CCOC4)cc3c2F)S(=O)(=O)N1` [Compound 263, 5-[7-(2,5-dihydrofuran-3-yl)-1-fluoro-3-hydroxynaphthalen-2-yl]-1λ^6,2,5-thiadiazolidine-1,1,3-trione]: the inhibition at 33 µM was 60 to 90% in experiment [1] (setting [4]) and less than 25% in experiment [1] (setting [5]). Besides, the figures for the half-inhibitory concentration (IC50) in experiment [2] and in experiment [3] were more than 100 nM and less than 1 nM, respectively.

On to `O=C1CN(c2c(O)cc3ccc(C4CCNC4)cc3c2F)S(=O)(=O)N1` (stereo not drawn) [Compound 102, 5-[1-fluoro-3-hydroxy-7-(pyrrolidin-3-yl)naphthalen-2-yl]-1λ^6,2,5-thiadiazolidine-1,1,3-trione], for which the inhibition at 33 µM in experiment [1] (setting [4]) is 60 to 90%; in experiment [1] (setting [5]) it was less than 25%. The IC50 in experiment [2] was in the range of 10 to 100 nM; in experiment [3], 1 to 10 nM.

On to `O=C1CN(c2c(O)cc3ccc(OCC4(F)CCNC4)cc3c2F)S(=O)(=O)N1` (stereo not drawn) [Compound 110, 5-{1-fluoro-7-[(3-fluoropyrrolidin-3-yl)methoxy]-3-hydroxynaphthalen-2-yl}-1λ^6,2,5-thiadiazolidine-1,1,3-trione], for which the inhibition at 33 µM in experiment [1] (setting [4]) is 60 to 90%; in experiment [1] (setting [5]), less than 25%. Further, the IC50 was in the range of 10 to 100 nM in experiment [2] and 1 to 10 nM in experiment [3].

As to `O=C1CN(c2c(O)cc3ccc(C4CCOC4)cc3c2F)S(=O)(=O)N1` (stereo not drawn) [Compound 255, 5-[1-fluoro-3-hydroxy-7-(oxolan-3-yl)naphthalen-2-yl]-1λ^6,2,5-thiadiazolidine-1,1,3-trione], the inhibition at 33 µM in experiment [1] (setting [4]) was 60 to 90%; in experiment [1] (setting [5]), less than 25%. Moreover, the IC50 in experiment [2] was more than 100 nM; in experiment [3], 1 to 10 nM.

For the compound `O=C1CN(c2c(O)cc3ccc(OCCC4CCCO4)cc3c2F)S(=O)(=O)N1` (stereo not drawn) [Compound 213, 5-{1-fluoro-3-hydroxy-7-[2-(oxolan-2-yl)ethoxy]naphthalen-2-yl}-1λ^6,2,5-thiadiazolidine-1,1,3-trione], the inhibition at 33 µM in experiment [1] (setting [4]) is 60 to 90%; in experiment [1] (setting [5]), less than 25%. Also, the concentration for half-maximal inhibition (IC50) in experiment [2] was 1 to 10 nM; in experiment [3], less than 1 nM.

As to `CC(C)CC(=O)Nc1ccc2cc(O)c(N3CC(=O)NS3(=O)=O)c(F)c2c1` [Compound 157, N-[8-fluoro-6-hydroxy-7-(1,1,4-trioxo-1λ^6,2,5-thiadiazolidin-2-yl)naphthalen-2-yl]-3-methylbutanamide], the inhibition at 33 µM in experiment [1] (setting [4]) was 60 to 90%; in experiment [1] (setting [5]) it was less than 25%. Further, the IC50 in experiment [2] fell in the range of 10 to 100 nM; in experiment [3], 1 to 10 nM.

Take `O=C1CN(c2c(O)cc3ccc(OCC(O)C4CC4)cc3c2F)S(=O)(=O)N1` (stereo not drawn) [Compound 150, 5-[7-(2-cyclopropyl-2-hydroxyethoxy)-1-fluoro-3-hydroxynaphthalen-2-yl]-1λ^6,2,5-thiadiazolidine-1,1,3-trione]: the figures for the inhibition at 33 µM in experiment [1] (setting [4]) and in experiment [1] (setting [5]) were more than 90% and less than 25%, respectively. The IC50 in experiment [2] and in experiment [3] was 1 to 10 nM throughout.

In general, IC50 refers to the concentration at which inhibition is half-maximal.
